{
  "source": "patent US20250381165A1",
  "about": "“Method of Use for Benzofuran Compounds” (Tampa Bay Research Institute, Inc., priority 2024, published 2025)",
  "type_in_all_cases": "cell-based, murine",
  "key": {"[1]": {"target": "T1, H-2Kb/SIINFEKL complex on DC2.4 (Mus musculus, UniProt P01901)", "T1 construct": "DC2.4 are a C57Bl/6 lineage murine cell line and as such they express MHC class I H-2Kb and H-2Db; endogenous in cells; host or cells: DC2.4 (murine dendritic cell line, from Dr. Kenneth Rock)", "experiment": "BFA decay experiment (SIINFEKL off-rate) on DC2.4", "details": "24 h pre-treatment, 1 h 30 nM SIINFEKL"}, "[2]": {"target": "T2, MHCI/SIINFEKL complex on DC2.4 (Mus musculus, UniProt P01901)", "T2 construct": "DC2.4 are a C57Bl/6 lineage murine cell line and as such they express MHC class I H-2Kb and H-2Db; endogenous in cells; host or cells: DC2.4 (murine dendritic cell line, from Dr. Kenneth Rock)", "T2 sequence (P01901 22-369)": "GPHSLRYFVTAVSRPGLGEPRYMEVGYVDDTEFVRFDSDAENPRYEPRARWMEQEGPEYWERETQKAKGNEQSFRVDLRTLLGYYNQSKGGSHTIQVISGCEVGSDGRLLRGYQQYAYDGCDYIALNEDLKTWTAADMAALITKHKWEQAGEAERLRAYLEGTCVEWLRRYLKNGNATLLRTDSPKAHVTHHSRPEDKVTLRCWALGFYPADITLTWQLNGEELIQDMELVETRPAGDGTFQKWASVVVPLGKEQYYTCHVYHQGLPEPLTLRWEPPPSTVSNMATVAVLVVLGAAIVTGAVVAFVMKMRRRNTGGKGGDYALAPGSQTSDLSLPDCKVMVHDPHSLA", "T2 sequence (P01887 21-119 partner)": "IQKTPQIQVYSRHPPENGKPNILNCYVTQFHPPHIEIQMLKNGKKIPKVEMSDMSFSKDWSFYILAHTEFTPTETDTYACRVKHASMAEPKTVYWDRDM", "experiment": "Displacement of SIINFEKL from DC2.4 after peptide pulse"}, "[3]": {"test_system": "MHC class I H-2Kb on DC2.4", "experiment": "MHC class I recovery after acid stripping of DC2.4", "details": "25 μg/mL BzFβ or 5 mM GL during recovery, 4-24 h", "experimental": "To determine if BzFβ affects synthesis or cycling of the MHC class I molecules, the class I molecule/peptide complexes were stripped from the surface of DC2.4 cells using a citric acid buffer, then treated with 25 μg/mL BzFβ, 5 mM of the dipeptide GL, or 3 μg/mL BFA (see Example 4) as a negative control.\nAn acid wash to strip the cell surface of MHC class I was performed as described with modifications. (Montealegre, et al., Dissociation of β2-microglobulin determines the surface quality control of major histocompatibility complex class I molecules. FASEB. 2015 July; 29(7):2780-8). DC2.4 were incubated overnight at 37° C. at 1×10^5. Cells were washed for 2 min in acidic buffer [(pH 2.5) 465 mM Citric acid, 35 mM sodium citrate, in PBS with 1% v/v FBS] or neutral buffer [(pH 7.4) PBS with 1% v/v FBS]. Afterwards the pH was neutralized by the addition of cDMEM. The cells were washed with PBS and treated with BzFβ or GL in cDMEM for various times to allow for MHC class I recovery at 37° C. Cells were washed and stained with an H-2Kb-specific antibody (Invitrogen, cat. no. 12-5958-82) and analyzed by flow cytometry as described previously\nMHC I recovery on the cell surface at various time points was detected by flow cytometry using the PE-labeled MHC class I H-2Kb specific antibody (AF6-88.5.5.3). […] At 6 hours >60% of the MHC class I molecules recovered, seen in FIG. 14."}, "[4]": {"test_system": "B16F10 cells (B3Z activation)", "experiment": "B3Z activation by B16F10 (OVA or SIINFEKL)", "experimental": "B16F10 were plated at a density of 2.5 or 5×10^4 cells/well (100 μL/well in 96 well plates) and cultured overnight in cDMEM. The cells were washed with DPBS and then treated for 1-24 h with the indicated concentrations of BzFβ or co-treated with the indicated concentrations of BzFβ and 1.0 mg/mL OVA, suspended in complete media. Cells treated with BzFβ only were pulsed with 2 nM SIINFEKL pulsed for 1 h. The cells were then co-cultured with equal number of B3Z cells at 37° C. for 19 h.\nIn this experiment the activity of the dipeptide, GL, was also examined, as it has been previously reported to function as a peptide exchange factor. (Saini, et al., Dipeptides catalyze rapid peptide exchange on MHC class I molecules. Proc Natl Acad Sci USA. 2015 Jan. 6; 112(1):202-7; Saini, et al., Empty peptide-receptive MHC class I molecules for efficient detection of antigen-specific T cells. Sci Immunol. 2019 Jul. 19; 4(37):eaau9039). B16F10 were plated at a density of 2.5 or 5×10^4 cells/well (100 μL/well in 96 well plates) and cultured overnight in cDMEM. The cells were washed with DPBS and then co-treated for 24 h with 10 mM (1.88 mg/mL) of GL and 1.0 mg/mL OVA or were pulsed with 2 nM SIINFEKL for 1 h following treatment with 10 mM GL in complete media. The cells were then co-cultured with an equal number of B3Z cells at 37° C. for 19 h."}, "[5]": {"test_system": "DC2.4 cells presenting SIINFEKL to B3Z CD8+ T cell hybridoma", "experiment": "B3Z activation by SIINFEKL-pulsed DC2.4 (CPRG β-gal assay)", "details": "doses up to 50 μg/mL (265 μM), 0.5 nM SIINFEKL", "experimental": "DC2.4 cells (2.5×10^4 cells/well) were seeded at 100 μL/well in 96 well tissue culture white sided/white bottom plate and incubated overnight to allow for cell adherence. 37° C. in an atmosphere containing 5% CO2 and 95% humidity. Following pre-treatment of the DC2.4 cells (1-24 h) with escalating doses of the test molecules, the cells were washed, pulsed with 0.5 nM of the MHC class I H-2Kb peptide, SIINFEKL, for 1 h, and then co-cultured with the CD8+ T cell hybridoma, B3Z.\nThe level of B3Z cell activation and the effects of the various test molecules on B3Z activation were quantified in cell lysates using the β-gal chromogenic substrate, CPRG. The media was removed and 100 μL of 250 μM CPRG reconstituted in the lysis buffer (1×DPBS, 0.2% v/v saponin, 20 mM magnesium chloride) was added directly to each well. Cells were maintained at 37° C. prior to measurement. The absorbance at 560 nm (700 nm for background) was intermittently monitored using a BioTek Synergy HTX multimode microplate reader (Winooski, VT) to detect β-gal activity. CPRG lysis buffer and B3Z cells only served as the negative controls. All treatments were performed in triplicate and all experiments were repeated a minimum of three times.\nActivation of B3Z T cell hybridoma cells was assessed following their exposure to various MHC class I H-2K^b positive cell lines presenting the SIINFEKL peptide. B3Z are a CD8+ SIINFEKL peptide specific T-cell hybridoma expressing a beta-galactosidase (β-gal) reporter gene driven by NF-AT elements on the interleukin 2 (IL-2) promoter. […] Activation of B3Z leads to production of β-gal whose presence can be quantified using the optimized detection assay described by Jendresen et al. (Jendresen, et al., An improved CPRG colorimetric ligand-receptor signal transduction assay based on beta-galactosidase activity in mammalian BWZ-reporter cells. J Pharmacol Toxicol Methods. 2018 March-April; 90:67-75).\nTo stimulate β-gal production in the B3Z, the H-2Kb murine cell lines, DC2.4, B16F10, and E.G7-OVA, or freshly isolated murine splenocytes, were plated at a density of 2.5 or 5×10^4 cells/well (100 μL/well in 96 well plates) and cultured overnight at 37° C. in an atmosphere containing 5% CO2 and 95% humidity. The cells were washed with DPBS and then treated for 1-24 h with the indicated concentrations of BzFβ suspended in complete media. Vehicle controls were always included. […]\nTo detect activation of the B3Z cells, the media was removed and 100 μL of 250 µM CPRG reconstituted in the lysis buffer (1×DPBS, 0.2% v/v saponin, 20 mM magnesium chloride) was added directly to each well. […] The absorbance at 560 nm (700 nm for background) was intermittently monitored using a BioTek Synergy HTX multimode microplate reader (Winooski, VT) to detect β-gal activity. […]"}, "[6]": {"test_system": "DC2.4 cells (B3Z activation)", "experiment": "Pathway inhibitor studies in DC2.4/B3Z assay", "experimental": "[…]. The cytotoxicity of all inhibitors was assessed using CellTiter96 Aqueous One (Promega (Madison WI, USA); cat. no. G3580).\n. The cells were then washed 2× before addition of BzFβ. Cells exposed to the other inhibitors were incubated with an appropriate concentration of each inhibitor, seen in Table 1 in cDMEM at 37° C., 5% CO2. […]. Cells were then incubated for 6 h. Before B3Z addition the inhibitor and BzFβ were removed, and the cells washed with warm DPBS. If testing peptide presentation, the DC2.4 cells were pulsed with 0.5 nM […] for 1 h prior to being cocultured with B3Z."}, "[7]": {"details": "DC2.4 pulsed with […], data not shown"}, "[8]": {"details": "DC2.4 pulsed with SIINFEKL, data not shown"}},
  "note": "Where two headings read alike, the source gives them in different places.",
  "data": [
    {"smiles": "CC(C)CC(NC(=O)CN)C(=O)O", "note": "(stereo not drawn) [GL, Glycine-leucine dipeptide, reference compound]", "values": [
      {"measurement": "decay rate of SIINFEKL / stability of H-2Kb/SIINFEKL complex", "setting": "[1]", "result": "no increase in overall stability"},
      {"measurement": "MHCI/SIINFEKL complex staining versus untreated cells", "setting": "[2]; 5 mM GL after 1 h pulse 30 nM SIINFEKL, p=0.0027", "result": "significantly reduced"},
      {"measurement": "concentration of dipeptides required relative to BzFβ", "setting": "[2]; displace or enhance peptide binding", "result": 3, "unit": "fold"},
      {"measurement": "MHC class I recovery after acid stripping", "setting": "[3]", "result": "no increase in MHC class I production"},
      {"measurement": "B3Z activation by B16F10, OVA", "setting": "[4]; co-treatment with 1 mg/mL OVA, GL at 10 mM", "result": "no effect on the uptake or processing of OVA"},
      {"measurement": "B3Z activation by B16F10, SIINFEKL", "setting": "[4]; pre-treatment, 1 h pulse 2 nM SIINFEKL, BzFβ 25, 50 μg, GL 10 mM", "result": "significantly enhance B3Z activation"}
    ]},
    {"smiles": "O=C(O)C=Cc1ccc2c(c1)CCO2", "note": "[molecule #2, 3-(2,3-dihydro-1-benzofuran-5-yl)acrylic acid]", "values": [
      {"measurement": "B3Z activation by analog-treated DC2.4", "setting": "[5]", "result": "failed to evoke activation of the B3Z response"}
    ]},
    {"smiles": "C=C1[C@@H](C)[C@H]2[C@H](Cc3ccccc3)NC(=O)[C@]23[C@H](OC(C)=O)/C=C/[C@@](C)(O)C(=O)[C@@H](C)C/C=C/[C@H]3[C@@H]1O", "note": "[cytochalasin D, Cytochalasin D]", "values": [
      {"measurement": "inhibition of BzFβ enhancement of B3Z activation", "setting": "[6]; [7]", "result": "failed to inhibit"}
    ]},
    {"smiles": "C[C@H]1CCC/C=C/[C@@H]2C[C@H](O)C[C@H]2[C@H](O)/C=C/C(=O)O1", "note": "[BFA, Brefeldin A]", "values": [
      {"measurement": "effect of BFA on B3Z activation with OVA as antigen source", "setting": "[6]; DC2.4, 3 μg/mL BFA 1 h pretreatment, 0.5 mg/mL OVA", "result": "significantly suppressed"}
    ]},
    {"smiles": "C[C@@H]1C[C@@H]([C@H](O)CC2CC(=O)NC(=O)C2)C(=O)[C@@H](C)C1", "note": "[cycloheximide, Cycloheximide]", "values": [
      {"measurement": "inhibition of BzFβ enhancement of B3Z activation", "setting": "[6]; [7]", "result": "failed to inhibit"}
    ]},
    {"smiles": "CO/C1=C\\C(C)=C\\[C@@H](C)[C@@H](O)[C@@H](C)C/C(C)=C/C=C/[C@H](OC)[C@@H]([C@@H](C)[C@@H](O)[C@H](C)[C@@]2(O)C[C@@H](O)[C@H](C)[C@@H](C(C)C)O2)OC1=O", "note": "[Bafilomycin A1]", "values": [
      {"measurement": "inhibition of BzFβ enhancement of B3Z activation", "setting": "[6]; [7]", "result": "failed to inhibit"}
    ]},
    {"smiles": "Cn1cnc(N)c2ncnc1-2", "note": "[3-methyladenine, 3-Methyladenine]", "values": [
      {"measurement": "inhibition of BzFβ enhancement of B3Z activation", "setting": "[6]; [8]", "result": "failed to inhibit"}
    ]},
    {"smiles": "CCN(CC)CCCC(C)Nc1ccnc2cc(Cl)ccc12", "note": "(stereo not drawn) [chloroquine, Chloroquine]", "values": [
      {"measurement": "inhibition of BzFβ enhancement of B3Z activation", "setting": "[6]", "result": "failed to inhibit"}
    ]},
    {"smiles": "COc1cccc2c1C(=O)c1c(O)c3c(c(O)c1C2=O)C[C@@](O)(C(=O)CO)C[C@@H]3O[C@H]1C[C@H](N)[C@H](O)[C@H](C)O1", "note": "[doxorubicin, Doxorubicin]", "values": [
      {"measurement": "inhibition of BzFβ enhancement of B3Z activation", "setting": "[6]; [8]", "result": "failed to inhibit"}
    ]},
    {"smiles": "O=C(O)/C=C/c1ccc2c(c1)OCO2", "note": "[molecule #4, (2E)-3-(1,3-benzodioxol-5yl)acrylic acid]", "values": [
      {"measurement": "B3Z activation by analog-treated DC2.4", "setting": "[5]", "result": "failed to evoke activation of the B3Z response"}
    ]}
  ]
}
